According to US20250186321A1, “FORMULATION USING AMINO ACID AND CARBOXYLIC ACID, ORGANIC SALT, AND COMPOSITION COMPRISING SAME AND USE THEREOF” (MIYOSHI OIL & FAT CO., LTD., priority 2021, published 2025):

Assay: Appearance of formulation (state at 25° C.)
Format: physicochemical
Method: Formulations 1 to 427 shown in Tables 1A to 1D were prepared by the above-described method using the components (A) and (B) at the compounding molar ratios shown in the tables, and their states at 25° C. were observed.

[1] = 25° C., components (A) and (B) at the compounding molar ratio shown
[2] = Tables 1C-1 to 1D, compounding molar ratio (Component (A):Component (B)) 1:1

state at 25° C. [2]	SMILES	state at 25° C. [1]	further results
–	CC(C)C[C@H](N)C(=O)O.O=C(O)c1ccccc1 [Formulation 218]	Solid	–
–	NCCCC[C@H](N)C(=O)O.O=C1O[C@H]([C@@H](O)CO)C(O)=C1O [Formulation 20]	Solid	–
–	NCC(=O)O.O=C(O)CCCCC(=O)O [Formulation 137]	Solid	–
Solid	CCCCCC(=O)O.N[C@@H](CC(=O)O)C(=O)O [Formulation 397]	–	–
–	N[C@@H](Cc1c[nH]cn1)C(=O)O.O=C(O)C(O)C(O)C(=O)O [Formulation 101]	Solid	–
Solid	CSCC[C@H](N)C(=O)O.O=C(O)C[C@H](O)C(=O)O [Formulation 334]	–	–
–	CC(=O)O.C[C@H](N)C(=O)O [Formulation 148]	Solid	–
Solid	CC(=O)O.N[C@@H](Cc1ccccc1)C(=O)O [Formulation 361]	–	–
–	N[C@@H](Cc1c[nH]cn1)C(=O)O.O=C(O)C(O)C(O)C(=O)O.O=C(O)C(O)C(O)C(=O)O [Formulation 122]	Solid	–
–	N=C(N)NCCC[C@H](N)C(=O)O.O=C(O)CCC(=O)O [Formulation 54]	Solid	–
–	CCCC(=O)O.C[C@@H](O)[C@H](N)C(=O)O [Formulation 259]	Solid	–
–	N=C(N)NCCC[C@H](N)C(=O)O.O=C(O)CCCCC(=O)O [Formulation 53]	Solid	–
–	CC(O)C(=O)O.NCC(=O)O (stereo not drawn) [Formulation 136]	Solid	–
–	N[C@@H](Cc1c[nH]cn1)C(=O)O.O=C(O)C[C@H](O)C(=O)O.O=C(O)C[C@H](O)C(=O)O [Formulation 120]	Solid	–
–	CC(C)[C@H](N)C(=O)O.O=C1O[C@H]([C@@H](O)CO)C(O)=C1O [Formulation 202]	Solid	–
–	CC(C)C[C@H](N)C(=O)O.O=C(O)CCCCC(=O)O [Formulation 211]	Solid	–
–	CC[C@H](C)[C@H](N)C(=O)O.O=C(O)C(O)C(O)C(=O)O (stereo not drawn) [Formulation 234]	Solid	–
–	CCCCCC(=O)O.NCC(=O)O [Formulation 130]	Solid	–
–	NCCCC[C@H](N)C(=O)O.O=C1O[C@H]([C@H](O)CO)C(O)=C1O [Formulation 21]	Liquid	–
Solid	CCCC(=O)O.N[C@@H](CC(=O)O)C(=O)O [Formulation 398]	–	–
–	CC[C@H](C)[C@H](N)C(=O)O.O=C(O)CCCCC(=O)O [Formulation 228]	Solid	–
Solid	CCC(=O)O.N[C@@H](Cc1ccccc1)C(=O)O [Formulation 362]	–	–
–	CCC(=O)O.C[C@H](N)C(=O)O [Formulation 149]	Solid	–
Solid	CC(=O)O.N[C@@H](CC(=O)O)C(=O)O [Formulation 395]	–	–

state at 25° C. [2]	SMILES	state at 25° C. [1]	further results
–	CC(C)[C@H](N)C(=O)O.O=C(O)[C@H](O)[C@@H](O)[C@H](O)[C@H](O)CO [Formulation 192]	Solid	–
–	CC(C)C[C@H](N)C(=O)O.O=C(O)[C@H](O)[C@@H](O)[C@H](O)[C@H](O)CO [Formulation 209]	Solid	–
–	N[C@@H](Cc1c[nH]cn1)C(=O)O.O=C(O)/C=C/c1ccccc1.O=C(O)/C=C/c1ccccc1 [Formulation 124]	Solid	–
–	CCCCCC(=O)O.N[C@@H](Cc1c[nH]cn1)C(=O)O [Formulation 88]	Solid	–
–	N[C@@H](CO)C(=O)O.O=C(O)/C=C/C(=O)O [Formulation 248]	Solid	–
–	CCCCCC(=O)O.N=C(N)NCCC[C@H](N)C(=O)O [Formulation 46]	Solid	–
–	CCCC(=O)O.NCCCC(=O)O [Formulation 171]	Solid	–
–	CC(C)[C@H](N)C(=O)O.CCCC(=O)O [Formulation 191]	Solid	–
–	CC[C@H](C)[C@H](N)C(=O)O.N[C@@H](CCC(=O)O)C(=O)O [Formulation 230]	Solid	–
–	N[C@@H](CO)C(=O)O.O=C1O[C@H]([C@H](O)CO)C(O)=C1O [Formulation 254]	Solid	–
–	CCCCCC(=O)O.C[C@@H](O)[C@H](N)C(=O)O [Formulation 258]	Solid	–
–	NCCCC[C@H](N)C(=O)O.O=C1O[C@H]([C@@H](O)CO)C(O)=C1O.O=C1O[C@H]([C@@H](O)CO)C(O)=C1O [Formulation 41]	Solid	–
Solic	N[C@@H](CS)C(=O)O.O=C(O)C(O)C(O)C(=O)O (stereo not drawn) [Formulation 319]	–	–
Solid	CCC(=O)O.O=C(O)[C@@H]1CCCN1 [Formulation 342]	–	–
–	C[C@@H](O)[C@H](N)C(=O)O.N[C@@H](CCC(=O)O)C(=O)O [Formulation 264]	Solid	–
–	CC(C)C[C@H](N)C(=O)O.O=C1O[C@H]([C@@H](O)CO)C(O)=C1O [Formulation 219]	Solid	–
–	Cl.O=C(O)[C@@H]1CCCN1 [Formulation 437]	–	state at 25° C. (25° C.): Solid
–	NCC(=O)O.O=C1O[C@H]([C@@H](O)CO)C(O)=C1O [Formulation 145]	Solid	–
–	C[C@H](N)C(=O)O.O=C1O[C@H]([C@@H](O)CO)C(O)=C1O [Formulation 165]	Solid	–
Solid	N[C@@H](Cc1ccccc1)C(=O)O.O=C(O)CCC(=O)O [Formulation 368]	–	–
–	N[C@@H](CO)C(=O)O.O=C(O)C(O)C(O)C(=O)O (stereo not drawn) [Formulation 251]	Solid	–
–	CCC(=O)O.CCC(=O)O.NCCCC[C@H](N)C(=O)O [Formulation 24]	Solid	–
–	CCC(=O)O.N=C(N)NCCC[C@H](N)C(=O)O [Formulation 45]	Solid	–
–	C[C@H](N)C(=O)O.O=C1O[C@H]([C@H](O)CO)C(O)=C1O [Formulation 166]	Solid	–

state at 25° C. [2]	SMILES	state at 25° C. [1]	further results
–	NCCCC(=O)O.O=C(O)CCCCC(=O)O [Formulation 177]	Solid	–
Solid	CCCC(=O)O.N[C@@H](CS)C(=O)O [Formulation 310]	–	–
Solid	N[C@@H](CS)C(=O)O.O=C(O)/C=C/C(=O)O [Formulation 316]	–	–
Solid	CCC(=O)O.N[C@@H](CS)C(=O)O [Formulation 308]	–	–
–	C[C@H](N)C(=O)O.O=C(O)C(O)C(O)C(O)C(O)CO (stereo not drawn) [Formulation 155]	Solid	–
–	CC(C)C[C@H](N)C(=O)O.O=C(O)CC(O)(CC(=O)O)C(=O)O [Formulation 216]	Solid	–
–	CCCCCCCC/C=C\CCCCCCCC(=O)O.C[C@H](N)C(=O)O [Formulation 153]	Solid	–
–	N[C@@H](Cc1c[nH]cn1)C(=O)O.O=C(O)c1ccccc1 [Formulation 102]	Solid	–
–	NCCCCC(N)C(=O)O.O=C(O)C=Cc1ccccc1.O=C(O)C=Cc1ccccc1 [Formulation 40]	Solid	–
–	N=C(N)NCCC[C@H](N)C(=O)O.O=C(O)c1ccccc1.O=C(O)c1ccccc1 [Formulation 81]	Solid	–
–	C[C@@H](O)[C@H](N)C(=O)O.O=C(O)CCCCC(=O)O [Formulation 262]	Solid	–
Solid	CCCC(=O)O.CSCC[C@H](N)C(=O)O [Formulation 327]	–	–
–	CC(C)[C@H](N)C(=O)O.CCCCCC(=O)O [Formulation 190]	Solid	–
Solid	CC(O)C(=O)O.CSCC[C@H](N)C(=O)O [Formulation 329]	–	–
–	CC(O)C(=O)O.CC(O)C(=O)O.NCCCC[C@H](N)C(=O)O [Formulation 31]	Solid	–
–	CC(=O)O.NCCCC(=O)O [Formulation 168]	Solid	–
–	NCCCC(=O)O.O=C(O)C(O)C(O)C(=O)O (stereo not drawn) [Formulation 183]	Solid	–
–	N[C@@H](CO)C(=O)O.O=C(O)c1ccccc1 [Formulation 252]	Solid	–
–	CC(C)[C@H](N)C(=O)O.O=C(O)CCCCC(=O)O [Formulation 194]	Solid	–
–	CC(=O)O.CC(=O)O.NCCCC[C@H](N)C(=O)O [Formulation 23]	Solid	–
–	N[C@@H](CO)C(=O)O.O=C(O)CCC(=O)O [Formulation 246]	Solid	–
–	CCC(=O)O.NCCCC[C@H](N)C(=O)O [Formulation 3]	Solid	–
–	NCCCC[C@H](N)C(=O)O.O=C(O)C(O)C(O)C(=O)O [Formulation 17]	Solid	–
Solid	CSCC[C@H](N)C(=O)O.O=C1O[C@H]([C@H](O)CO)C(O)=C1O [Formulation 339]	–	–

SMILES	state at 25° C. [2]	state at 25° C. [1]	further results
N[C@@H](CCC(=O)O)C(=O)O.O=C(O)CCCCC(=O)O [Formulation 418]	Solid	–	–
O=C(O)[C@@H]1CCCN1.O=C(O)c1ccccc1 [Formulation 357]	Solid	–	–
N[C@@H](Cc1c[nH]c2ccccc12)C(=O)O.O=C(O)C(O)C(O)C(=O)O [Formulation 390]	Solid	–	–
CC(=O)O.N[C@@H](CCC(=O)O)C(=O)O [Formulation 412]	Solid	–	–
N[C@@H](CCC(=O)O)C(=O)O.O=C(O)CC(O)(CC(=O)O)C(=O)O [Formulation 423]	Solid	–	–
N[C@@H](CCC(=O)O)C(=O)O.O=C(O)C(O)C(O)C(=O)O [Formulation 424]	Solid	–	–
N[C@@H](Cc1c[nH]c2ccccc12)C(=O)O.O=C(O)C[C@H](O)C(=O)O [Formulation 388]	Solid	–	–
N[C@@H](Cc1c[nH]c2ccccc12)C(=O)O.O=CO [Formulation 377]	Solid	–	–
CCC(=O)O.N[C@@H](CCC(=O)O)C(=O)O [Formulation 413]	Solid	–	–
N[C@@H](CCC(=O)O)C(=O)O.O=C(O)CCC(=O)O [Formulation 419]	Solid	–	–
CSCC[C@H](N)C(=O)O.O=C(O)c1ccccc1 [Formulation 337]	Solid	–	–
CSCC[C@H](N)C(=O)O.N[C@@H](CCC(=O)O)C(=O)O [Formulation 332]	Solid	–	–
